In one assay the test system is Dengue virus. In words: Antiviral activity against dengue virus. The class given is functional, organism-based.
Assay [1] addresses T1, Genome polyprotein (dengue virus type 2, UniProt P29990). Description: Inhibition of DENV2 NS2B-NS3 serine protease using Bz-Nle-Lys-Arg-Arg-AMC as substrate after 15 mins by fluorescence assay.
For the next assay, the system named is dengue virus type 3. In words: Antiviral activity against DENV3 97 infected in human Huh7.5 cells after 72 hrs. It is filed as functional, organism-based. The conditions noted are these: Dengue virus, 97, Huh7.5, 72 h.
In assay [2] the test system is dengue virus type 2. Description: Antiviral activity against DENV2 ICC-265 infected in human Huh7.5 cells after 72 hrs. It is filed as functional, organism-based. The conditions noted are these: ICC-265, Huh7.5, 72 h.
Another assay has as its system dengue virus type 4. In words: Antiviral activity against DENV4 TVP360 infected in human Huh7.5 cells after 72 hrs. It is filed as functional, organism-based. The conditions noted are these: TVP360, Huh7.5, 72 h.
Assay [3] has as its system dengue virus type 1. Description: Antiviral activity against DENV1 FGA/89 infected in human Huh7.5 cells after 72 hrs. The class given is functional, organism-based. Particulars: FGA/89, Huh7.5, 72 h.
The target of assay [4] is T1, Genome polyprotein. In words: Inhibition of His-tagged DENV2 NS2B-NS3 serine protease expressed in Escherichia coli BL21 using Boc-Gly-Arg-Arg-7-amino-4-methylcoumarin as substrate measured after 10 mins by fluorometric assay.
Assay [5] relates to dengue virus type 2. Description: Antiviral activity against DENV2 infected in human Huh7 cells by qRT-PCR analysis. It is filed as functional, organism-based. Particulars: Huh-7. On the technique in general: Quantitative PCR measures a nucleic acid by following its amplification.
In assay [6] the test system is dengue virus type 2. Description: Antiviral activity against DENV2 infected in BHK-21 cells after 72 hrs by plaque-forming assay. It is filed as functional, organism-based. The conditions noted are these: BHK-21, 72 h.
For assay [7], the system named is dengue virus type 2. In words: Antiviral activity against DENV2. The class given is functional, organism-based.
Assay [8] deals with T1, Genome polyprotein. In words: Inhibition of DENV2 NS2B-NS3 serine protease expressed using Benzoyl-Nle-Lys-Arg-Arg-AMC as substrate measured preincubated for 3 mins followed by substrate addition by fluorescence assay.
Assay [9] deals with dengue virus type 2. Description: Antiviral activity against DENV2 infected in BHK-21 cells assessed as viral replication. It is filed as functional, organism-based.
The target of assay [10] is T2, Nonstructural protein 5 (Dengue virus, UniProt V5TFZ2). In words: Inhibition of His-tagged DENV2 NS5 RNA dependent RNA polymerase expressed in baculovirus infected sf9 cells. Further details: species or system dengue virus type 2.
T2 sequence (V5TFZ2 whole entry): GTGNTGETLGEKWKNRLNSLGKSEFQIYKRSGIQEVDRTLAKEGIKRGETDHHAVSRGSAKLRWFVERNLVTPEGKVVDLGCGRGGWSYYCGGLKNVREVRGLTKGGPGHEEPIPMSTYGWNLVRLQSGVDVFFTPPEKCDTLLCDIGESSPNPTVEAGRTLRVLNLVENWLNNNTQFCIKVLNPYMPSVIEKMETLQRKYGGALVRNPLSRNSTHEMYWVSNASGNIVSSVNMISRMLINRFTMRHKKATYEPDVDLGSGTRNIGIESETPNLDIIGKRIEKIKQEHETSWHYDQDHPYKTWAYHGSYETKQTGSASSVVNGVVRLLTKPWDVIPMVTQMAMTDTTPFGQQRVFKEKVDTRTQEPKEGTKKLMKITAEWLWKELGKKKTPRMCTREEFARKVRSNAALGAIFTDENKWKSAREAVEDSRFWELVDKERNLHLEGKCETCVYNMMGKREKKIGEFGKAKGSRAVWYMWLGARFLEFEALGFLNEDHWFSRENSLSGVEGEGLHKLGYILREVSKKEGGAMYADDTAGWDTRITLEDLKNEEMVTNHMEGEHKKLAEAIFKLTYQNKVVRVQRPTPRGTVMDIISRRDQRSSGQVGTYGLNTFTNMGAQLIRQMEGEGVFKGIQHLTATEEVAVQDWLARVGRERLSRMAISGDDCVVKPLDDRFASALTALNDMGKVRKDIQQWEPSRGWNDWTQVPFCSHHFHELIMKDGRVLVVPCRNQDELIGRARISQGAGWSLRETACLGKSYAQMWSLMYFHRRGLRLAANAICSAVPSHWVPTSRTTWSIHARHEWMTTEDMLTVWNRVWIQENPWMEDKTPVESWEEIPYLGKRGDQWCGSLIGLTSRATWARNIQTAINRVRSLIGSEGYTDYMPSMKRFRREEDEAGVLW
Assay [11] deals with T2, Nonstructural protein 5. Description: Inhibition of His-tagged DENV2 NS5 RNA dependent RNA polymerase. Further details: species or system dengue virus type 2.
For assay [12], the target named is T2, Nonstructural protein 5. Description: Inhibition of dengue virus NS5 RNA dependent RNA polymerase.
Assay [13] has as its system dengue virus type 1. In words: Antiviral activity against DENV1 infected in African green monkey Vero cells assessed as reduction in viral replication after 4 days by qRT-PCR analysis. It is filed as functional, organism-based. The conditions noted are these: 96 h.
Assay [14] deals with dengue virus type 2. In words: Antiviral activity against DENV2 infected in BHK-21 cells assessed as viral titer by plaque assay. It is filed as functional, organism-based.
Assay [15] deals with dengue virus type 2. In words: Antiviral activity against DENV2 infected in human Huh-7 cells. It is filed as functional, organism-based.
For assay [16], the system named is dengue virus type 2. Description: Antiviral activity against DENV2 infected in BHK-21 cells by MTTR assay. The class given is functional, organism-based.
Assay [17] relates to dengue virus type 2. Description: Antiviral activity against DENV2 infected in BHK cells assessed as reduction in viral yield after 24 ro 48 hrs by luciferase reporter gene assay. It is filed as functional, organism-based. (In a reporter assay the amount or activity of a reporter protein is the signal.)

Converted amounts (≈) assume the structure as drawn.

T1 sequence (P29990 1346-1475 limits assumed): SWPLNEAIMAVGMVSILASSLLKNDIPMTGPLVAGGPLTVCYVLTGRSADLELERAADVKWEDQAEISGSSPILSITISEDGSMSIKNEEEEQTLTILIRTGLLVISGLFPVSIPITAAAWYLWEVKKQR
T1 sequence (P29990 1476-2093 limits assumed): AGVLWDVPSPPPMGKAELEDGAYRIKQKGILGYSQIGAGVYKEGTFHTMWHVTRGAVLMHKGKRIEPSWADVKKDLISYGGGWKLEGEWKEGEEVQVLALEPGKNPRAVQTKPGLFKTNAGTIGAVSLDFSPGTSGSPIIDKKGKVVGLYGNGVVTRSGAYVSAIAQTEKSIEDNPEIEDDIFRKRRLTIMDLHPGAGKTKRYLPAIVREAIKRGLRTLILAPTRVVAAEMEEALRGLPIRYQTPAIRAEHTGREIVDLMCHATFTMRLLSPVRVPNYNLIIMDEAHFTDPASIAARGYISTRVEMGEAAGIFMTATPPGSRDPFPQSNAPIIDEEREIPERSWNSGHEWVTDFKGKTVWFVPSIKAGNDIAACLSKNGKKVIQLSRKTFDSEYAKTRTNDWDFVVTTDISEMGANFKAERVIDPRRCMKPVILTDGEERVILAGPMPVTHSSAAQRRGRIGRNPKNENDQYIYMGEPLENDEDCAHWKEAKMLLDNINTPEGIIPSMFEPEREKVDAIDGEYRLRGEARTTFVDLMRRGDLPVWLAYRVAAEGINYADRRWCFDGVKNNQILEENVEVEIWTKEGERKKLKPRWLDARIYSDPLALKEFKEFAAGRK

By EC50 is commonly meant the concentration giving half of the maximal effect. `CC[C@@H](c1cc(OC)c(OC)cc1OC)[C@H](C)[C@@H](/C(C)=C/c1cc(OC)c(OC)cc1OC)c1cc(OC)c(OC)cc1OC`: in the assay with Dengue virus, it took 3.9 µM to reach a half-maximal effect (EC50).

As usually defined, the IC50 is the concentration that gives 50% inhibition. `CCc1ccc(NS(=O)(=O)c2ccc(N3C(=O)c4ccccc4C3=O)cc2)cc1` gave an IC50 on Genome polyprotein [1] of 48.2 µM.

For the compound `CCCCCCCCCCCCNCCNC(=O)C[C@@]1(O)C[C@@H](O)[C@@H]2OC(C)(C)O[C@@H]2C1`, the IC50 with dengue virus type 3, in the assay on dengue virus type 2 [2], with dengue virus type 4 and with dengue virus type 1 [3] was 6.9 to 10.4 µM throughout.

With `O=C(O)c1cc2sc(NC(=O)c3ccccc3Sc3ccc(C(F)(F)F)cc3)nc2cc1O`, the IC50 against Genome polyprotein [4] was found to be 66 µM.

`O[C@H]1[C@H]2c3cc4c(cc3CN3CCC(=C[C@@H]1O)[C@H]23)OCO4` [LYCORINE] yielded an EC50 with Dengue virus of 0.4 to 1.8 µM.

In the case of `OCc1cc(C(O)CNCCCCCCOCCCCc2ccccc2)ccc1O` (centres undefined) [SALMETEROL], half-maximal inhibition in the assay with dengue virus type 2 [5] (IC50) required 0.67 µM.

In the assay on dengue virus type 2 [6], `CCCCCCCCCCCCCCCC[N+](CC)(CO)CO` had a half-maximal effective concentration (EC50) of 1.03 µM.

As to `CC[C@](C)(O)CCCCC[C@H]1C=CC(=O)O1`, the EC50 in the assay on Dengue virus is 11.2 to 21.2 µM.

Consider `CC(C)CC(=O)c1c(O)c2c(c3c(-c4ccccc4)cc(=O)oc13)OC(C)(C)C=C2` [ISOMAMMEIGIN], for which the EC50 in the assay with dengue virus type 2 [7] fell in the range of 2.6 to 10.2 µM.

For `O=C1N[C@@H](Cc2ccccc2)C(=O)N2C[C@H](O)C[C@@H]12`, the half-maximal effective concentration (EC50) with Dengue virus was 11.2 to 21.2 µM.

On Genome polyprotein [8], `Cc1ccc(C2=NC(=O)/C(=C/c3cc(O)c(O)c(Br)c3)S2)cc1` gave an IC50 of 2.94 to 4.06 µM. In the assay with dengue virus type 2 [9], the half-maximal effective concentration (EC50) is 6.9 µM.

As for `CCOC(=O)c1cnn(-c2ccccc2)c1N(S(=O)(=O)c1ccc([N+](=O)[O-])cc1)S(=O)(=O)c1ccc([N+](=O)[O-])cc1`, the results for the EC50 at Nonstructural protein 5 [10], in the assay with dengue virus type 2 [7] and on Nonstructural protein 5 [11] were 0.013 µM, 5.7 µM and 4.9 µM, respectively.

Consider `Cc1c(O)cccc1C(=O)N[C@@H](CSc1ccccc1)[C@H](O)CN1C[C@H]2CCCC[C@H]2C[C@H]1C(=O)NC(C)(C)C` [NELFINAVIR], for which half-maximal inhibition in the assay on dengue virus type 2 [7] (IC50) was put at 3.5 µM.

The compound `CC(=O)O[C@H]1[C@H]2c3cc4c(cc3CN3CCC(=C[C@@H]1O)[C@H]23)OCO4` registered a concentration for a half-maximal effect (EC50) in the assay on Dengue virus of 0.4 to 1.8 µM.

The compound `CC(C)C[C@@H]1NC(=O)[C@@H]2CCCN2C1=O` yielded an EC50 in the assay on Dengue virus of 11.2 to 21.2 µM.

On Nonstructural protein 5 [12], `C[C@@H]1O[C@@H](Oc2c(-c3ccc(O)c(O)c3)oc3cc(O)cc(O)c3c2=O)[C@H](O)[C@H](O)[C@H]1O` [QUERCITRIN] yielded an IC50 of 1.7 to 2.1 µM.

For `O=C(Nc1cccs1)c1ccccc1Sc1ccc([N+](=O)[O-])cc1`, the EC50 in the assay with dengue virus type 1 [13] stood at 3.5 µM. Also, at Genome polyprotein [4], the IC50 was determined as 98 µM.

Take `CCN(CC)CCNC(=O)c1c(C)[nH]c(/C=C2\C(=O)Nc3ccc(F)cc32)c1C` [SUNITINIB]: the EC50 in the assay on dengue virus type 2 [14] turned out to be 1.96 µM.

With `CCCCCCCCCCCCCCNCCNC(=O)C[C@]1(O)C[C@@H](O)[C@@H](O)[C@H](O)C1`, the IC50 in the assay with dengue virus type 3, with dengue virus type 2 [2], in the assay with dengue virus type 4 and in the assay with dengue virus type 1 [3] was 6.5 to 10.8 µM throughout.

In the assay with dengue virus type 2 [15], `O=c1c2cc(O)c(O)cc2oc2cc(O)c([C@@H]3O[C@H](CO)[C@@H](O)[C@H](O)[C@H]3O/C=C/c3ccccc3)c(O)c12` displayed an EC50 of 3.5 µg/mL (≈ 6.67 µM).

Turning to `CCCc1cc(=O)oc2c(C(=O)CC(C)C)c(O)c(CC=C(C)C)c(O)c12`, the EC50 with dengue virus type 2 [7] lay in the range of 2.6 to 10.2 µM.

In the case of `C/C=C(\C)C(=O)O[C@@H]1CC[C@]2(C)[C@H]3CC[C@@]4(C)[C@@H]([C@@H]5C[C@H]([C@@H]6OC6(C)C)O[C@H]5O)CC[C@]4(C)C3=CC[C@H]2C1(C)C`, in the assay with dengue virus type 2 [16], the EC50 is 3 µM.

Take `CCN(CC)CCCC(C)Nc1c2ccc(Cl)cc2nc2ccc(OC)cc12` (centres undefined) [QUINACRINE]: the EC50 with dengue virus type 2 [17] was found to be 5.3 µM.

As to `CNCCC(Oc1ccc(C(F)(F)F)cc1)c1ccccc1` (centres undefined) [FLUOXETINE], the IC50 with dengue virus type 2 [5] worked out at 0.38 µM.
